{
  "source": "paper PMC11968843",
  "about": "“Sulphostin-inspired N-phosphonopiperidones as selective covalent DPP8 and DPP9 inhibitors” (Nature Communications, 2025)",
  "assay_in_all_cases": "Competitive ABPP / direct target identification with alkyne probe 9 in HEK293 cell lysates",
  "type_in_all_cases": "binding, H. sapiens",
  "key": {"[1]": {"biological_target": "T1, HEK293 cell lysates (proteome-wide targets of probe 9) (Homo sapiens, UniProt P59998)", "T1 construct": "endogenous in cells; host or cells: HEK293 cell lysate", "details": "protein ARPC4"}, "[2]": {"biological_target": "T2, HEK293 cell lysates (proteome-wide targets of probe 9) (Homo sapiens, UniProt Q01469)", "T2 construct": "endogenous in cells; host or cells: HEK293 cell lysate", "T2 sequence (Q01469 whole entry)": "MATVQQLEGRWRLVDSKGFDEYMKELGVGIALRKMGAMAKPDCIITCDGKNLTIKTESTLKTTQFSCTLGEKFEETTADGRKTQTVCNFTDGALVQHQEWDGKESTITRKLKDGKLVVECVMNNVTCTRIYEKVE", "details": "protein FABP5"}, "[3]": {"biological_target": "T3, HEK293 cell lysates (proteome-wide targets of probe 9) (Homo sapiens, UniProt P50914)", "T3 construct": "endogenous in cells; host or cells: HEK293 cell lysate", "details": "protein RPL14"}, "[4]": {"biological_target": "T4, HEK293 cell lysates (proteome-wide targets of probe 9) (Homo sapiens, UniProt P61247)", "T4 construct": "endogenous in cells; host or cells: HEK293 cell lysate", "details": "protein RPS3A"}, "[5]": {"biological_target": "T5, HEK293 cell lysates (proteome-wide targets of probe 9) (Homo sapiens, UniProt P62424)", "T5 construct": "endogenous in cells; host or cells: HEK293 cell lysate", "details": "protein RPL7A"}, "[6]": {"biological_target": "T6, HEK293 cell lysates (proteome-wide targets of probe 9) (Homo sapiens, UniProt P52292)", "T6 construct": "endogenous in cells; host or cells: HEK293 cell lysate", "details": "protein KPNA2"}, "[7]": {"biological_target": "T7, HEK293 cell lysates (proteome-wide targets of probe 9) (Homo sapiens, UniProt O60506)", "T7 construct": "endogenous in cells; host or cells: HEK293 cell lysate", "details": "protein SYNCRIP"}, "[8]": {"biological_target": "T8, HEK293 cell lysates (proteome-wide targets of probe 9) (Homo sapiens, UniProt Q02878)", "T8 construct": "endogenous in cells; host or cells: HEK293 cell lysate", "details": "protein RPL6"}, "[9]": {"biological_target": "T9, HEK293 cell lysates (proteome-wide targets of probe 9) (Homo sapiens, UniProt O43175)", "T9 construct": "endogenous in cells; host or cells: HEK293 cell lysate", "T9 sequence (O43175 whole entry)": "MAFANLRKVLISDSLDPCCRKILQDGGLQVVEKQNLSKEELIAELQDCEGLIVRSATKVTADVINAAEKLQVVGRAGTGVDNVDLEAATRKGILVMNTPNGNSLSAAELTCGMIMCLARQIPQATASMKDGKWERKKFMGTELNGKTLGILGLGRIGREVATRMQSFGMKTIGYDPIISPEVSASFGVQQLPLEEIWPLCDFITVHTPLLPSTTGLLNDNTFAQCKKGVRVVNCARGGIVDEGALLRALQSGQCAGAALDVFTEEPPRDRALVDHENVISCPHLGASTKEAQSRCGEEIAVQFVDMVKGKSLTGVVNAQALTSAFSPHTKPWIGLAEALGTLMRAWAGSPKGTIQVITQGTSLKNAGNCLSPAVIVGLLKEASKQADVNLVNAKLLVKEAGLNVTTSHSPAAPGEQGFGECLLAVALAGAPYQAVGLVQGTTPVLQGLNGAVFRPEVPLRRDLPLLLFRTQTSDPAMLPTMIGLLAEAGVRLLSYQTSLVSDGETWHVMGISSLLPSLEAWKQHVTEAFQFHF", "details": "protein PHGDH"}, "[10]": {"biological_target": "T10, HEK293 cell lysates (proteome-wide targets of probe 9) (Homo sapiens, UniProt P06748)", "T10 construct": "endogenous in cells; host or cells: HEK293 cell lysate", "details": "protein NPM1"}, "[11]": {"biological_target": "T11, HEK293 cell lysates (proteome-wide targets of probe 9) (Homo sapiens, UniProt P08758)", "T11 construct": "endogenous in cells; host or cells: HEK293 cell lysate", "T11 sequence (P08758 whole entry)": "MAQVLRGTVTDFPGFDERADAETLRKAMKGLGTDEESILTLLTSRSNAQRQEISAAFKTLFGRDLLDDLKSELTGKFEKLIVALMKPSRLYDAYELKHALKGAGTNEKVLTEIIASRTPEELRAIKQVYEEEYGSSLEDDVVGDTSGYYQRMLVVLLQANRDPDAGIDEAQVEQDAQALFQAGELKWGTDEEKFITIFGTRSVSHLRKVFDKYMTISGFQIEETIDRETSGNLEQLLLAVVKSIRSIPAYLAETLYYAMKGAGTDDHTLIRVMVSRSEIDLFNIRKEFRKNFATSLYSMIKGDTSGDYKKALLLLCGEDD", "details": "protein ANXA5"}, "[12]": {"biological_target": "T12, HEK293 cell lysates (proteome-wide targets of probe 9) (Homo sapiens, UniProt P07900)", "T12 construct": "endogenous in cells; host or cells: HEK293 cell lysate", "details": "protein HSP90AA1"}, "[13]": {"biological_target": "T13, HEK293 cell lysates (proteome-wide targets of probe 9) (Homo sapiens, UniProt P08670)", "T13 construct": "endogenous in cells; host or cells: HEK293 cell lysate", "T13 sequence (P08670 whole entry)": "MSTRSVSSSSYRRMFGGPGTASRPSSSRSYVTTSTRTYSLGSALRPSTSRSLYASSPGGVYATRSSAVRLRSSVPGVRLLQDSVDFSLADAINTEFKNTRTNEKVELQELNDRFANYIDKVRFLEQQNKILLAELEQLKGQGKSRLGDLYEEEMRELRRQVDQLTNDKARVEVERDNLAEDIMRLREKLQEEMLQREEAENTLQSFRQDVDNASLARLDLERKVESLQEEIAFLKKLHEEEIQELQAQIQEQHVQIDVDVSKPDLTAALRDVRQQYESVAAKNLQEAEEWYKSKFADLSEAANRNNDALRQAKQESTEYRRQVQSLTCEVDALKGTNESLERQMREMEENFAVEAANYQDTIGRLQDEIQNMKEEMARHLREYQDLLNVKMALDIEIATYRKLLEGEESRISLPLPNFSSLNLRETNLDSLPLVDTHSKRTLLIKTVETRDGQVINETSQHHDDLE", "details": "protein VIM"}, "[14]": {"biological_target": "T14, HEK293 cell lysates (proteome-wide targets of probe 9) (Homo sapiens, UniProt P31948)", "T14 construct": "endogenous in cells; host or cells: HEK293 cell lysate", "details": "protein STIP1"}, "[15]": {"biological_target": "T15, HEK293 cell lysates (proteome-wide targets of probe 9) (Homo sapiens, UniProt P60174)", "T15 construct": "endogenous in cells; host or cells: HEK293 cell lysate", "T15 sequence (P60174 whole entry)": "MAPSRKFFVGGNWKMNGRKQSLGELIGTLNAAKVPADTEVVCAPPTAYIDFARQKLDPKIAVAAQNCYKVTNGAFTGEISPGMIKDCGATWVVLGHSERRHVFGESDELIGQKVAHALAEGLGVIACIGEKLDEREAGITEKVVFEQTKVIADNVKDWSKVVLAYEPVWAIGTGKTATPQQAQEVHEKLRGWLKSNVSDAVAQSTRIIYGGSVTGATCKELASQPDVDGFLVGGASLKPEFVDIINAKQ", "details": "protein TPI1"}, "[16]": {"biological_target": "T16, HEK293 cell lysates (proteome-wide targets of probe 9) (Homo sapiens, UniProt Q14697)", "T16 construct": "endogenous in cells; host or cells: HEK293 cell lysate", "T16 sequence (Q14697 29-944)": "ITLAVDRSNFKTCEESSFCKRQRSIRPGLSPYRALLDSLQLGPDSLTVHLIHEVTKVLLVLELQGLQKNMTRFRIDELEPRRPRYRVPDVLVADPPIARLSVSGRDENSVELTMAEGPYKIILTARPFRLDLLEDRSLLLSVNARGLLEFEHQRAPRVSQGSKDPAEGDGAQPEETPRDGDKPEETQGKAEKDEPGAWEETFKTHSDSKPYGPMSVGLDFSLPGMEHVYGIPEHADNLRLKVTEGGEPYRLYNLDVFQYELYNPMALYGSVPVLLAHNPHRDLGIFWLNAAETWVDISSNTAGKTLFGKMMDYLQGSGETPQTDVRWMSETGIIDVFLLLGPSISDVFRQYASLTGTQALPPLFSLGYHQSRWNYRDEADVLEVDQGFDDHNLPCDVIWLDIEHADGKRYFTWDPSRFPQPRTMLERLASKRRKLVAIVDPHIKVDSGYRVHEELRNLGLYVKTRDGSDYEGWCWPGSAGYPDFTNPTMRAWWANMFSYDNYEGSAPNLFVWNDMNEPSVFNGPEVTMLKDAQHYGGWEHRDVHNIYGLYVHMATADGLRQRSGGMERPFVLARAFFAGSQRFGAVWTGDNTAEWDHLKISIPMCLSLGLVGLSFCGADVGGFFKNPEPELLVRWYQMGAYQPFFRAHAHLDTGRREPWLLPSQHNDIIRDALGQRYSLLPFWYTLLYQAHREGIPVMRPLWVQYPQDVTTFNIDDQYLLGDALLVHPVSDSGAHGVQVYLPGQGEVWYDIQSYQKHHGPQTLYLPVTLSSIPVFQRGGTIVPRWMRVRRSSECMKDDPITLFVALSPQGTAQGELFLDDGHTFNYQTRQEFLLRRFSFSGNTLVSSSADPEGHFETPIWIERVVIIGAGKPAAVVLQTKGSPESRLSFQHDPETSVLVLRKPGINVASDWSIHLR", "details": "protein GANAB"}, "[17]": {"biological_target": "T17, HEK293 cell lysates (proteome-wide targets of probe 9) (Homo sapiens, UniProt Q00839)", "T17 construct": "endogenous in cells; host or cells: HEK293 cell lysate", "details": "protein HNRNPU"}, "[18]": {"biological_target": "T18, HEK293 cell lysates (proteome-wide targets of probe 9) (Homo sapiens, UniProt P04075)", "T18 construct": "endogenous in cells; host or cells: HEK293 cell lysate", "T18 sequence (P04075 whole entry)": "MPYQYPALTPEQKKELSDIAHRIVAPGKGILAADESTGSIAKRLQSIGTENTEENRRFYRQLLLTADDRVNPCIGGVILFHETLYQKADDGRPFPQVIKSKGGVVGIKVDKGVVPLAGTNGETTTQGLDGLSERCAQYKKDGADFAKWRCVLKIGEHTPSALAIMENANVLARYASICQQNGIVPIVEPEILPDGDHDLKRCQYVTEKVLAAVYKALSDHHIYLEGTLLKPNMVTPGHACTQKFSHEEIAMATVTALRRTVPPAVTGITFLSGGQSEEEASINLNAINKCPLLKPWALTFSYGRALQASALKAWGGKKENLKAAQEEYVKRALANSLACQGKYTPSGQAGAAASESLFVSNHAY", "details": "protein ALDOA"}, "[19]": {"biological_target": "T19, HEK293 cell lysates (proteome-wide targets of probe 9) (Homo sapiens, UniProt P11142)", "T19 construct": "endogenous in cells; host or cells: HEK293 cell lysate", "T19 sequence (P11142 whole entry)": "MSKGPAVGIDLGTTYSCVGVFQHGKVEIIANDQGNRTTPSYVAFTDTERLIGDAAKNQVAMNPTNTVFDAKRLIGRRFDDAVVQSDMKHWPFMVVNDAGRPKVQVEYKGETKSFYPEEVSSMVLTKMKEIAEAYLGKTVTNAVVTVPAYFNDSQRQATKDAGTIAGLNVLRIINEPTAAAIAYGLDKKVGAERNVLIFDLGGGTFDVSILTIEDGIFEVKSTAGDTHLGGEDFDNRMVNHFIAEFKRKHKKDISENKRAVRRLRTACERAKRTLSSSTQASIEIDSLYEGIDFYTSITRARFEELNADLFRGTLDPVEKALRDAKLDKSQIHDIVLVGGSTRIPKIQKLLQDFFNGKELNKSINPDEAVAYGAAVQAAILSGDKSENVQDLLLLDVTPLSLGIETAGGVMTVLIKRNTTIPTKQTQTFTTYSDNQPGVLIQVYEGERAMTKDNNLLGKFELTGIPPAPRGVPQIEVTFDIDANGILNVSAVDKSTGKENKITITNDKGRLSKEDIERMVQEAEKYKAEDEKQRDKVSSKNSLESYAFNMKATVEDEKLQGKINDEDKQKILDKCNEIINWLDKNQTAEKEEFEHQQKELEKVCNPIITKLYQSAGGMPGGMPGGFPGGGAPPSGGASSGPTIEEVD", "details": "protein HSPA8"}, "[20]": {"biological_target": "T20, HEK293 cell lysates (proteome-wide targets of probe 9) (Homo sapiens, UniProt P07437)", "T20 construct": "endogenous in cells; host or cells: HEK293 cell lysate", "T20 sequence (P07437 whole entry)": "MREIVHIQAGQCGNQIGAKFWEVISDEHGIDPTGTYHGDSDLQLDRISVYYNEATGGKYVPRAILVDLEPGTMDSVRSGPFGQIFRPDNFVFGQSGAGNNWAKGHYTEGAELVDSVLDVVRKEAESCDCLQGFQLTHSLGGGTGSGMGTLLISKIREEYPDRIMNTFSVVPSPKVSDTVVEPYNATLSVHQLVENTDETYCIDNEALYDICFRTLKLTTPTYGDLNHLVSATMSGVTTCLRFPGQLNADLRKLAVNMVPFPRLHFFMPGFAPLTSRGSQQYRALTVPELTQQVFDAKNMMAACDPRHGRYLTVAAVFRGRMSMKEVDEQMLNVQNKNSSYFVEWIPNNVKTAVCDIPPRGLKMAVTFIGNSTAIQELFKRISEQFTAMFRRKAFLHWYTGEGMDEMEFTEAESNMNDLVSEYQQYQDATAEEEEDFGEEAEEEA", "details": "protein TUBB"}, "[21]": {"biological_target": "T21, HEK293 cell lysates (proteome-wide targets of probe 9) (Homo sapiens, UniProt P26373)", "T21 construct": "endogenous in cells; host or cells: HEK293 cell lysate", "details": "protein RPL13"}, "[22]": {"biological_target": "T22, HEK293 cell lysates (proteome-wide targets of probe 9) (Homo sapiens, UniProt P63261)", "T22 construct": "endogenous in cells; host or cells: HEK293 cell lysate", "details": "protein ACTG1"}, "[23]": {"biological_target": "T23, HEK293 cell lysates (proteome-wide targets of probe 9) (Homo sapiens, UniProt P37837)", "T23 construct": "endogenous in cells; host or cells: HEK293 cell lysate", "T23 sequence (P37837 whole entry)": "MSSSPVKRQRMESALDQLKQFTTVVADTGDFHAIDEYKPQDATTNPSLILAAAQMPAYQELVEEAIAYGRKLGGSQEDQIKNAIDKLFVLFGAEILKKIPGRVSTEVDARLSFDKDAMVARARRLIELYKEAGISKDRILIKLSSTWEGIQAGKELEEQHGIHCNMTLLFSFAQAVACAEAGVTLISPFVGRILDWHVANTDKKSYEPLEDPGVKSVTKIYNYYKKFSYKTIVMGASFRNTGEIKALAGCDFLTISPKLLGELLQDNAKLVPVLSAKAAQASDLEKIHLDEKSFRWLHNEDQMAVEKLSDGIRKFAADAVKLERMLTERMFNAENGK", "details": "protein TALDO1"}, "[24]": {"biological_target": "T24, HEK293 cell lysates (proteome-wide targets of probe 9) (Homo sapiens, UniProt Q86TI2)", "T24 construct": "endogenous in cells; host or cells: HEK293 cell lysate", "details": "protein DPP9 (Dipeptidyl peptidase 9)"}, "[25]": {"biological_target": "T25, HEK293 cell lysates (proteome-wide targets of probe 9) (Homo sapiens, UniProt P78371)", "T25 construct": "endogenous in cells; host or cells: HEK293 cell lysate", "T25 sequence (P78371 whole entry)": "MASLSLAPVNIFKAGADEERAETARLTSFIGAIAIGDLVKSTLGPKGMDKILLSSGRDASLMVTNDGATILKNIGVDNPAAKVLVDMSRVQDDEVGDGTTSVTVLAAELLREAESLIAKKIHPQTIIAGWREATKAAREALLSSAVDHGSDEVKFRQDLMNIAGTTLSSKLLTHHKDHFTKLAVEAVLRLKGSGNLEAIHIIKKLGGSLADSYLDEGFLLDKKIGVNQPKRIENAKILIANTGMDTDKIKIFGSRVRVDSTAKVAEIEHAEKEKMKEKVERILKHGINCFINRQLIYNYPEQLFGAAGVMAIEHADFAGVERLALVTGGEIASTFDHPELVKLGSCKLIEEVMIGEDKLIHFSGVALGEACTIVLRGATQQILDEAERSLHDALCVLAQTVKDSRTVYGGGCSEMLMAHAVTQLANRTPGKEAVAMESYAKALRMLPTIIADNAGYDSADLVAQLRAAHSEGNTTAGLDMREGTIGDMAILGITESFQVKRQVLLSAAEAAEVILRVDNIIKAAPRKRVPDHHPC", "details": "protein CCT2"}, "[26]": {"biological_target": "T26, HEK293 cell lysates (proteome-wide targets of probe 9) (Homo sapiens, UniProt P46782)", "T26 construct": "endogenous in cells; host or cells: HEK293 cell lysate", "details": "protein RPS5"}},
  "data": [
    {"smiles": "C#CCCCP(=O)(OCC)N1CCCC(N)C1=O.O=C(O)C(F)(F)F", "note": "(mixture of isomers) [Compound 9]", "values": [
      {"measurement": "Log2-fold change (9/DMSO)", "setting": "[1]", "result": -0.5289},
      {"measurement": "Log2-fold change (9/DMSO)", "setting": "[2]", "result": -0.287},
      {"measurement": "Log2-fold change (9/DMSO)", "setting": "[3]", "result": 0.6133},
      {"measurement": "Log2-fold change (9/DMSO)", "setting": "[4]", "result": 0.9053},
      {"measurement": "Log2-fold change (9/DMSO)", "setting": "[5]", "result": 1.788},
      {"measurement": "Log2-fold change (9/DMSO)", "setting": "[6]", "result": 0.6086},
      {"measurement": "Log2-fold change (9/DMSO)", "setting": "[7]", "result": 0.3304},
      {"measurement": "Log2-fold change (9/DMSO)", "setting": "[8]", "result": 0.5143},
      {"measurement": "Log2-fold change (9/DMSO)", "setting": "[9]", "result": 0.8847},
      {"measurement": "Log2-fold change (9/DMSO)", "setting": "[10]", "result": 0.3807},
      {"measurement": "Log2-fold change (9/DMSO)", "setting": "[11]", "result": -0.9261},
      {"measurement": "Log2-fold change (9/DMSO)", "setting": "[12]", "result": -0.06179},
      {"measurement": "Log2-fold change (9/DMSO)", "setting": "[13]", "result": 0.9336},
      {"measurement": "Log2-fold change (9/DMSO)", "setting": "[14]", "result": 1.191},
      {"measurement": "Log2-fold change (9/DMSO)", "setting": "[15]", "result": 0.2166},
      {"measurement": "Log2-fold change (9/DMSO)", "setting": "[16]", "result": 0.2816},
      {"measurement": "Log2-fold change (9/DMSO)", "setting": "[17]", "result": -0.419},
      {"measurement": "Log2-fold change (9/DMSO)", "setting": "[18]", "result": 0.3187},
      {"measurement": "Log2-fold change (9/DMSO)", "setting": "[19]", "result": 0.1798},
      {"measurement": "Log2-fold change (9/DMSO)", "setting": "[20]", "result": 1.741},
      {"measurement": "Log2-fold change (9/DMSO)", "setting": "[21]", "result": 1.809},
      {"measurement": "Log2-fold change (9/DMSO)", "setting": "[22]", "result": 0.5764},
      {"measurement": "Log2-fold change (9/DMSO)", "setting": "[23]", "result": 0.3993},
      {"measurement": "Log2-fold change (9/DMSO)", "setting": "[24]", "result": 5.502},
      {"measurement": "Log2-fold change (9/DMSO)", "setting": "[25]", "result": 1.1495},
      {"measurement": "Log2-fold change (9/DMSO)", "setting": "[26]", "result": 0.2495}
    ]},
    {"smiles": "CCCCCc1ccc(SCCP(=O)(OCC)N2CCC[C@H](N)C2=O)cc1.O=C(O)C(F)(F)F", "note": "(stereo partly shown) [Compound 16]", "values": [
      {"measurement": "Log2-fold change (16/9)", "setting": "[1]", "result": -0.1373},
      {"measurement": "Log2-fold change (16/9)", "setting": "[2]", "result": 0.6319},
      {"measurement": "Log2-fold change (16/9)", "setting": "[3]", "result": -1.54},
      {"measurement": "Log2-fold change (16/9)", "setting": "[4]", "result": -0.3832},
      {"measurement": "Log2-fold change (16/9)", "setting": "[5]", "result": 0.2888},
      {"measurement": "Log2-fold change (16/9)", "setting": "[6]", "result": -0.6819},
      {"measurement": "Log2-fold change (16/9)", "setting": "[7]", "result": -1.04},
      {"measurement": "Log2-fold change (16/9)", "setting": "[8]", "result": 0.35},
      {"measurement": "Log2-fold change (16/9)", "setting": "[9]", "result": -0.3162},
      {"measurement": "Log2-fold change (16/9)", "setting": "[10]", "result": -0.43},
      {"measurement": "Log2-fold change (16/9)", "setting": "[11]", "result": 0.8558},
      {"measurement": "Log2-fold change (16/9)", "setting": "[12]", "result": -0.09553},
      {"measurement": "Log2-fold change (16/9)", "setting": "[13]", "result": -0.2472},
      {"measurement": "Log2-fold change (16/9)", "setting": "[14]", "result": -0.3266},
      {"measurement": "Log2-fold change (16/9)", "setting": "[15]", "result": -0.0839},
      {"measurement": "Log2-fold change (16/9)", "setting": "[16]", "result": 0.1876},
      {"measurement": "Log2-fold change (16/9)", "setting": "[17]", "result": -1.015},
      {"measurement": "Log2-fold change (16/9)", "setting": "[18]", "result": -0.5623},
      {"measurement": "Log2-fold change (16/9)", "setting": "[19]", "result": -0.08018},
      {"measurement": "Log2-fold change (16/9)", "setting": "[20]", "result": -2.286},
      {"measurement": "Log2-fold change (16/9)", "setting": "[21]", "result": -0.8436},
      {"measurement": "Log2-fold change (16/9)", "setting": "[22]", "result": -0.3964},
      {"measurement": "Log2-fold change (16/9)", "setting": "[23]", "result": 0.1822},
      {"measurement": "Log2-fold change (16/9)", "setting": "[24]", "result": -5.229},
      {"measurement": "Log2-fold change (16/9)", "setting": "[25]", "result": -0.827},
      {"measurement": "Log2-fold change (16/9)", "setting": "[26]", "result": 0.301}
    ]}
  ]
}
